From patent US20100104644A1, “Compositions and Methods for Treating or Preventing Ophthalmic Disease” (University of Florida Research Foundation, Inc., priority 2006, published 2010)
“Also recorded” adds a separate entry of the source.

Columns and labels:
[1] = system: purified wild-type (WT) opsin; assay: Opsin regeneration: pigment formation of purified WT opsin with 11-cis-retinal in the presence of compound; type: biochemical; details: for inhibition of pigment formation / binding of 11-cis-retinal to opsin: in vitro
[2] = system: P23H opsin; assay: P23H yield in stable cells expressing opsin treated with compound; type: cell-based
Procedure: Stable cell lines expressing opsin protein were generated using the Flp-In T-Rex system. The stable cells were grown in DMEM high glucose media supplemented with 10% (v/v) fetal bovine serum, antibiotic/antimycotic solution, […] blasticidin and hygromycin at 37° C. in presence of 5% CO2. For all the experiments the cells were allowed to reach confluence and were induced to produce opsin with 1 μg/ml tetracycline after change of media and then compounds were added. The plates were incubated for 48 hours after which the cells were harvested.
Proteins were separated on SDS-PAGE gels and western blotted as described in Noorwez et al. (2004).

[3] = system: purified wt (wild-type) opsin; assay: 500 nm absorbing pigment formation on addition of compound alone to purified opsin; type: biochemical; details: compound added to purified WT opsin without 11-cis-retinal

| SMILES | % Increase in P23H Yield ([2]; Table 1) [%] | % Increase in P23H Yield ([2]; Table 2, with spread) [%] | also measured |
| --- | --- | --- | --- |
| CC(=O)c1c(C)n[nH]c1C [Compound 1, 1-(3,5-dimethyl-1H-pyrazol-4-yl)ethanone] | 31 | 30 ± 5 | inhibition of pigment formation of WT opsin with 11-cis-retinal ([1]; 2 mM and 5 mM concentrations): inhibited; inhibition of pigment formation / binding of 11-cis-retinal to opsin ([1]; listed as SN 10011): inhibits the binding of 11-cis-retinal to opsin in vitro; inhibition of pigment formation / binding of 11-cis-retinal to opsin ([1]; listed as SN10011): reversibly inhibits binding of 11-cis-retinal; also recorded: significant effect on inhibition of pigment formation; formation of 500 nm absorbing pigment by the compound with opsin ([3]; listed as SN10011): No pigment was formed; also recorded: no 500 nm absorbing pigment was generated |
| N#Cc1cn(Cc2ccco2)c(=O)[nH]c1=O [Compound 2, 1-furan-2-ylmethyl-2,4-dioxo-1,2,3,4-tetrahydro-pyrimidine-5-carbonitrile] | 43 | 40 ± 7 | – |
| O=[PH](O)c1ccccc1 [Compound 3, phenyl-phosphinic acid] | 32 | 40 ± 3 | – |
| Cc1cc([N+](=O)[O-])ccn1 [Compound 4, 2-methyl-4-nitro-pyridine] | 24 | 25 ± 8 | – |
| O=C1NC(CCO)C(=O)NC1CCO (stereo not shown) [Compound 5, 3,6-bis-(2-hydroxyethy)-piperazine-2,5-dione] | 15 | 30 ± 10 | – |
| CC(C)N(CC#N)C(C)C [Compound 6, diisopropylaminoacetonitrile] | 28 | 25 ± 3 | – |
| N#Cc1ccc2c(c1)OCO2 [Compound 27009, 3,4-Methylenedioxybenzonitrile] | – | 20 ± 5 | – |
| Cn1cc(C(N)=O)ccc1=N [Compound 66688, 6-imino-1-methyl-1,6-dihydro-3-pyridinecarboxamine] | – | 40 ± 9 | – |
| Nn1nnc2ccccc21 [Compound 114498, 1H-1,2,3-benzotriazol-1-amine] | – | 30 ± 6 | – |
| Oc1ccccc1C=Nn1cnnc1 [Compound 121968, 4-Salicylideneamino-1,2,4-triazol] | – | 29 ± 5 | – |
| CC(=O)/C=C/C1=C(C)CCCC1(C)C [β-ionone, reference compound] | – | – | inhibition of pigment formation / binding of 11-cis-retinal to opsin [1]: inhibit binding of retinal to the site; also recorded: inhibited opsin regeneration in a dose dependent manner; formation of 500 nm absorbing pigment by the compound with opsin [3]: does not form a light absorbing pigment with opsin; also recorded: does not itself form a 500 nm absorbing pigment with opsin; also recorded: no 500 nm absorbing pigment was formed |
